Laboratory results taken from PMC10045904, “Polyphenol Profile of Cistus × incanus L. and Its Relevance to Antioxidant Effect and α-Glucosidase Inhibition” (Antioxidants, 2023).
Converted amounts (≈) assume the structure as drawn. “And” between values parts separate entries of the source, which are not always exact repeats. Identical values can stand only once. Like-named read-outs stand apart in the source and are kept apart here.

Legend:
[1] = molecular target: T1, α-glucosidase from Saccharomyces cerevisiae (Saccharomyces cerevisiae, UniProt P53341); assay: α-glucosidase inhibitory assay (p-NPG, 96-well microplate); format: biochemical; details: pure compound at 500 µg/mL, triplicate
T1 construct: purchased Sigma-Aldrich (Germany)
Method: Spectrophotometric measurements were conducted using a Multiskan GO Spectrophotometer (Thermo-Fisher Scientific). The %Inhibition was calculated from the formula % inhibition=(AControl− ASample/AControl )×100
The α-glucosidase inhibitory activity was conducted in a 96-well microplate using 4-nitrophenyl-α-D-glucopyranoside (p-NPG), as reported previously. […] […] The microplate with samples and enzyme solution was initially incubated for 5 min at 37 °C. […] The reaction was allowed to run for 10 min and afterward stopped by adding 50 µL of 0.1 M Na2CO3. The absorbance was measured at 405 nm. All of the samples were tested in triplicate.
(§1) The readings were reduced by absorbance of the sample blanks measured separately for each extract/polyphenol, which consisted of 50 µL of extract diluted in 150 µL of buffer solution only, while values obtained for uninhibited controls were reduced by absorbance values of the buffer solution (buffer blank). The activity was expressed as %inhibition. The half-maximal inhibitory concentration (IC50) values, defined as concentration of inhibitor necessary to reduce the rate of an enzymatic process by 50%, were calculated as follows: IC50=sample concentration ×50/% inhibition

[2] = molecular target: T1, α-glucosidase from Saccharomyces cerevisiae; assay: Kinetics of α-glucosidase inhibition (Lineweaver–Burk, varying inhibitor and p-NPG concentrations); format: biochemical; details: for Inhibition Type (mode of α-glucosidase inhibition): Lineweaver–Burk plots, p-NPG 1–20 mM, enzyme 0.25 U/mL
Method: as §1, with “×50/% inhibition […]” for “×50/% inhibition”
Inhibition modes of α-glucosidase were determined according to Chu et al.. […] After 5 min of preincubation, the addition of the substrate started the reaction, and the changes in absorbance were measured at 30 s intervals. The uninhibited reaction was also run. The reaction was terminated after 10 min, and the absorbance values obtained in the kinetic study were used to create Lineweaver–Burk plots of 1/v against 1/[S].
S3. Ability of α‐glucosidase inhibition by C. incanus
Figure S1. Inhibition of α‐glucosidase by C. incanus extracts at different concentrations.
The absorbance values have been used to determine the changes in Michaelis con‐ stant (Km) and maximum velocity of reaction (Vmax). At first, the change in absorbance over time was converted to absorbance units per minute and then expressed as micromoles of chromogenic product (p‐Np) liberated in the enzymatic reaction in order to determine reaction velocity. The molar extinction coefficient of p‐NP used in the calculation was de‐ termined from its standard curve. The reciprocal of reaction velocity values of each tested compound and extract at different substrate concentrations were then plotted against the reciprocal of substrate concentrations. The intercepts of the created trendlines were uti‐ lized to calculate Km and Vmax values of each enzymatic reaction, and evaluation of altera‐

[3] = design: method as in PMID 35458630, PMID 36673365; details: after consumption of ellagitannin-rich foods; cited from earlier work
[4] = read-out: IC50 [µM] α-glucosidase
[5] = read-out: IC50 [µg/mL] α-glucosidase (converted)

T1 sequence (P53341 whole entry): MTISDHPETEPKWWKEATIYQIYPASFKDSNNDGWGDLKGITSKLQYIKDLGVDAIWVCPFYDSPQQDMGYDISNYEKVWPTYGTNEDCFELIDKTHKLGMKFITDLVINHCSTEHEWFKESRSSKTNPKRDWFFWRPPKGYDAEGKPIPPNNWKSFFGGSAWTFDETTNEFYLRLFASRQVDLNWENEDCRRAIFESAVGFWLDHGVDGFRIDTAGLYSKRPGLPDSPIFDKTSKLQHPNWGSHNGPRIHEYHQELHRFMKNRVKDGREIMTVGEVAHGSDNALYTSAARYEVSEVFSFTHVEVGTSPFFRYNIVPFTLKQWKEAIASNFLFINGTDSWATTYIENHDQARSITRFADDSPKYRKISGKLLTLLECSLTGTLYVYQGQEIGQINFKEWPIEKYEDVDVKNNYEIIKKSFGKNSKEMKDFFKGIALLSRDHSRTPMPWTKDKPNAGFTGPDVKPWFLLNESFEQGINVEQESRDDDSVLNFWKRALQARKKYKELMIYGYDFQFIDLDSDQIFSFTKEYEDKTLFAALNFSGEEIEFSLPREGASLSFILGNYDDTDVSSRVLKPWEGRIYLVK

| Compound | inhibition at 500 µg/mL [1] | Inhibition Type (mode of α-glucosidase inhibition) [2] | IC50 [µg/mL] α-glucosidase [2] | IC50 ([2]; listed as cistusin, read-out: IC50 [µM] α-glucosidase) | IC50 [2, 4] | α-glucosidase %inhibition [1] | absorption into the bloodstream [3] | IC50 [2, 5] |
| --- | --- | --- | --- | --- | --- | --- | --- | --- |
| O=c1c(O)c(-c2ccc(O)cc2)oc2cc(O)cc(O)c12 [kaempferol] | 17.6% |  |  |  |  |  |  |  |
| C[C@H]1O[C@H](O[C@H]2[C@H](O)[C@@H](O)[C@@H](O[C@H]3[C@H](O)[C@@H](O)C(O)O[C@@H]3CO)O[C@@H]2CO)[C@H](O)[C@@H](O)[C@@H]1N[C@H]1C=C(CO)[C@@H](O)[C@H](O)[C@H]1O (some centres unmarked) [Acarbose, acarbose, reference compound] | 13.7% | competitive |  |  |  |  |  |  |
| Cistusin |  | mixed | 0.83 µg/mL | 0.7 µM | 0.66 µM | > 70% |  |  |
| O=C1OC[C@H]2OC(O)[C@H](O)[C@@H](O)[C@@H]2OC(=O)c2cc(O)c(O)c(O)c2-c2c(O)c(O)c3oc(=O)c4c(c(O)c(O)c5oc(=O)c2c3c54)-c2c1cc(O)c(O)c2O (mixture of isomers) [punicalin] |  |  |  |  |  |  | not absorbed into the bloodstream |  |
| O=c1c(O)c(-c2ccc(O)c(O)c2)oc2cc(O)cc(O)c12 [quercetin] | 30 to 40% |  |  |  |  |  |  |  |
| O=c1oc2c(O)c(O)cc3c(=O)oc4c(O)c(O)cc1c4c23 [Ellagic acid, ellagic acid] | > 70% | mixed |  |  | 11 µM and 10.8 µM | 81.9% |  | 10.8 µM |
| O=C(/C=C/c1ccc(O)cc1)OC[C@H]1O[C@@H](Oc2c(-c3ccc(O)cc3)oc3cc(O)cc(O)c3c2=O)[C@H](O)[C@@H](O)[C@@H]1O [Tiliroside, kaempferol-3-O-β-(6″-O-p-coumaroyl)glucoside] | > 70% | mixed |  |  | 283 µM | 73.6% |  | 283 µM |
| O=C(O)c1cc(O)c(O)c(O)c1 [Gallic acid, gallic acid] | > 70% | mixed |  |  | 686 µM | 82.8% |  | 688 µM and 686 µM |
| O=C(OC[C@H]1OC(O)[C@@H]2OC(=O)c3cc(O)c(O)c(O)c3-c3c(cc(O)c(O)c3O)C(=O)O[C@H]2[C@@H]1OC(=O)c1cc(O)c(O)c(O)c1-c1c(O)c(O)c2oc(=O)c3cc(O)c(O)c4oc(=O)c1c2c43)c1cc(O)c(O)c(O)c1 (some centres unmarked) [Terflavin A, terflavin A] |  | mixed | 1.19 µg/mL (≈ 1.1 µM) |  | 1.1 µM | > 70% |  |  |
| O=C1O[C@H]2[C@@H]3OC(=O)c4cc(O)c(O)c(O)c4-c4c(O)c(O)c5oc(=O)c6c(c(O)c(O)c7oc(=O)c4c5c76)-c4c(cc(O)c(O)c4O)C(=O)OC[C@H]3OC(O)[C@@H]2OC(=O)c2cc(O)c(O)c(O)c2-c2c1cc(O)c(O)c2O (mixture of isomers) [Punicalagin, punicalagin] | > 70% | competitive |  |  | 1.1 µM and 1.14 µM |  | not absorbed into the bloodstream | 1.13 µM |
| O=c1c(O[C@@H]2O[C@H](CO)[C@H](O)[C@H](O)[C@H]2O)c(-c2ccc(O)c(O)c2)oc2cc(O)cc(O)c12 [hyperoside, quercetin-3-O-β-galactoside] | 26% |  |  |  |  |  |  |  |
